Data reported in patent publication US20230085307A1, “PYRIDAZINONE COMPOUND AND HERBICIDE” (NISSAN CHEMICAL CORPORATION, priority 2019, published 2023).

Key:
windgrass [1] = test: Test Example 4: herbicidal effect by soil treatment (Table 19, symbol L); type: in vivo, windgrass (Apera spica-venti); conditions: amount of applied herbicide 320 g/ha
Method in brief: (§1)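 Three weeks of greenhouse growth at 25° C. to 30° C. followed a uniform surface spray of water-diluted emulsion at a predetermined herbicide amount. Seeds had been sown beforehand under about 1.5 cm of sterilized diluvial soil. Grading followed criteria set out in an earlier test.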

barnyard grass [2] = test: Test Example 5: herbicidal effect by foliage application, plastic box (Table 20, symbol H); type: in vivo, barnyard grass (Echinochloa crus-galli); conditions: amount of applied herbicide 320 g/ha; foliage application after 14-day growth; evaluated three weeks after application
Method in brief: (§2)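 Plants sown in sterilized diluvial soil and grown 14 days in a greenhouse at 25° C to 30° C, then sprayed on the foliage with the compound's emulsion diluted in water to a predetermined herbicide amount. Injury to weeds and crops scored three weeks after application on a visual rating scale.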

blackgrass [3] = test: Test Example 5: herbicidal effect by foliage application, plastic box (Table 20, symbol J); type: in vivo, blackgrass (Alopecurus myosuroides); conditions: amount of applied herbicide 320 g/ha; foliage application after 14-day growth; evaluated three weeks after application
Method in brief: as §2

chickweed [4] = test: Test Example 5: herbicidal effect by foliage application, plastic box (Table 20, symbol P); type: in vivo, common chickweed (Stellaria media); conditions: amount of applied herbicide 320 g/ha; foliage application after 14-day growth; evaluated three weeks after application
Method in brief: as §2

oval-leafed pondweed = test: Test Example 1: herbicidal activity, application before weed generation under submerged conditions (Table 16, symbol C); type: in vivo, oval-leafed pondweed (Monochoria vaginalis); conditions: amount of applied herbicide 320 g/ha
Method in brief: (§3)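 Alluvial soil was flooded to 4 cm depth, weed seeds were sown mixed and 2.5-leaf rice seedlings were transplanted. On sowing day, the compound's emulsion, diluted in water to a set dose, was applied to the water surface. Plants grew at 25–30 °C and were scored 0–5 after three weeks.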

Italian ryegrass [5] = test: Test Example 5: herbicidal effect by foliage application, plastic box (Table 20, symbol K); type: in vivo, Italian ryegrass (Lolium multiflorum); conditions: amount of applied herbicide 320 g/ha; foliage application after 14-day growth; evaluated three weeks after application
Method in brief: as §2

barnyard grass [6] = test: Test Example 3: herbicidal effect by foliage application, Wagner pot (Table 18, symbol H); type: in vivo, barnyard grass (Echinochloa crus-galli); conditions: 320 g/ha
Method in brief: (§4)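 Plants were sown in alluvial soil held under 0.1–0.5 cm standing water and grown 14 days in a greenhouse at 25–30 °C. An emulsifiable formulation, water-diluted to the set dose, was then sprayed onto the foliage, and effects were scored three weeks later using previously defined criteria.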

redroot pigweed [7] = test: Test Example 5: herbicidal effect by foliage application, plastic box (Table 20, symbol N); type: in vivo, redroot pigweed (Amaranthus retroflexus); conditions: amount of applied herbicide 320 g/ha; foliage application after 14-day growth; evaluated three weeks after application
Method in brief: as §2

green foxtail [8] = test: Test Example 5: herbicidal effect by foliage application, plastic box (Table 20, symbol G); type: in vivo, green foxtail (Setaria viridis); conditions: amount of applied herbicide 320 g/ha; foliage application after 14-day growth; evaluated three weeks after application
Method in brief: as §2

green foxtail [9] = test: Test Example 4: herbicidal effect by soil treatment (Table 19, symbol G); type: in vivo, green foxtail (Setaria viridis); conditions: amount of applied herbicide 320 g/ha
Method in brief: as §1

redroot pigweed [10] = test: Test Example 4: herbicidal effect by soil treatment (Table 19, symbol N); type: in vivo, redroot pigweed (Amaranthus retroflexus); conditions: amount of applied herbicide 320 g/ha
Method in brief: as §1

persian speedwell [11] = test: Test Example 4: herbicidal effect by soil treatment (Table 19, symbol R); type: in vivo, Persian speedwell (Veronica persica); conditions: amount of applied herbicide 320 g/ha
Method in brief: as §1

southern crabgrass [12] = test: Test Example 5: herbicidal effect by foliage application, plastic box (Table 20, symbol F); type: in vivo, southern crabgrass (Digitaria ciliaris); conditions: amount of applied herbicide 320 g/ha; foliage application after 14-day growth; evaluated three weeks after application
Method in brief: as §2

velvetleaf [13] = test: Test Example 5: herbicidal effect by foliage application, plastic box (Table 20, symbol M); type: in vivo, velvetleaf (Abutilon theophrasti); conditions: amount of applied herbicide 320 g/ha; foliage application after 14-day growth; evaluated three weeks after application
Method in brief: as §2

southern crabgrass [14] = test: Test Example 4: herbicidal effect by soil treatment (Table 19, symbol F); type: in vivo, southern crabgrass (Digitaria ciliaris); conditions: amount of applied herbicide 320 g/ha
Method in brief: as §1

Italian ryegrass [15] = test: Test Example 4: herbicidal effect by soil treatment (Table 19, symbol K); type: in vivo, Italian ryegrass (Lolium multiflorum); conditions: amount of applied herbicide 320 g/ha
Method in brief: as §1

barnyard grass [16] = test: Test Example 4: herbicidal effect by soil treatment (Table 19, symbol H); type: in vivo, barnyard grass (Echinochloa crus-galli); conditions: amount of applied herbicide 320 g/ha
Method in brief: as §1

Chinese sprangletop = test: Test Example 3: herbicidal effect by foliage application, Wagner pot (Table 18, symbol D); type: in vivo, chinese sprangletop (Leptochloa chinensis); conditions: 320 g/ha
Method in brief: as §4

late watergrass = test: Test Example 1: herbicidal activity, application before weed generation under submerged conditions (Table 16, symbol A); type: in vivo, late watergrass (Echinochloa oryzicola); conditions: amount of applied herbicide 320 g/ha
Method in brief: as §3

Japanese bulrush = test: Test Example 1: herbicidal activity, application before weed generation under submerged conditions (Table 16, symbol B); type: in vivo, Japanese bulrush (Schoenoplectus juncoides); conditions: amount of applied herbicide 320 g/ha
Method in brief: as §3

false cleavers = test: Test Example 4: herbicidal effect by soil treatment (Table 19, symbol Q); type: in vivo, false cleavers (Galium spurium); conditions: amount of applied herbicide 320 g/ha
Method in brief: as §1

blackgrass [17] = test: Test Example 4: herbicidal effect by soil treatment (Table 19, symbol J); type: in vivo, blackgrass (Alopecurus myosuroides); conditions: amount of applied herbicide 320 g/ha
Method in brief: as §1

lambsquarters [18] = test: Test Example 5: herbicidal effect by foliage application, plastic box (Table 20, symbol O); type: in vivo, lambsquarters (Chenopodium album); conditions: amount of applied herbicide 320 g/ha; foliage application after 14-day growth; evaluated three weeks after application
Method in brief: as §2

wild oat [19] = test: Test Example 4: herbicidal effect by soil treatment (Table 19, symbol I); type: in vivo, wild oat (Avena fatua); conditions: amount of applied herbicide 320 g/ha
Method in brief: as §1

velvetleaf [20] = test: Test Example 4: herbicidal effect by soil treatment (Table 19, symbol M); type: in vivo, velvetleaf (Abutilon theophrasti); conditions: amount of applied herbicide 320 g/ha
Method in brief: as §1

chickweed [21] = test: Test Example 4: herbicidal effect by soil treatment (Table 19, symbol P); type: in vivo, common chickweed (Stellaria media); conditions: amount of applied herbicide 320 g/ha
Method in brief: as §1

rice flat sedge = test: Test Example 3: herbicidal effect by foliage application, Wagner pot (Table 18, symbol E); type: in vivo, rice flat sedge (Cyperus iria); conditions: 320 g/ha
Method in brief: as §4

windgrass [22] = test: Test Example 5: herbicidal effect by foliage application, plastic box (Table 20, symbol L); type: in vivo, windgrass (Apera spica-venti); conditions: amount of applied herbicide 320 g/ha; foliage application after 14-day growth; evaluated three weeks after application
Method in brief: as §2

persian speedwell [23] = test: Test Example 5: herbicidal effect by foliage application, plastic box (Table 20, symbol R); type: in vivo, Persian speedwell (Veronica persica); conditions: amount of applied herbicide 320 g/ha; foliage application after 14-day growth; evaluated three weeks after application
Method in brief: as §2

lambsquarters [24] = test: Test Example 4: herbicidal effect by soil treatment (Table 19, symbol O); type: in vivo, lambsquarters (Chenopodium album); conditions: amount of applied herbicide 320 g/ha
Method in brief: as §1

wild oat [25] = test: Test Example 5: herbicidal effect by foliage application, plastic box (Table 20, symbol I); type: in vivo, wild oat (Avena fatua); conditions: amount of applied herbicide 320 g/ha; foliage application after 14-day growth; evaluated three weeks after application
Method in brief: as §2

CCCC(=O)Oc1c(C)nn(C)c(=O)c1-c1c(-c2ccc(F)cc2OC)sc2cc(F)c(F)cc12 [5-030]
L: windgrass, herbicidal effect grade (windgrass [1]): 5 (Herbicidal rate of 90% or more (almost completely withered))
Herbicidal effect by foliage application, H: barnyard grass (barnyard grass [2]): 2 (Herbicidal rate of 20% or more and less than 40%)
Herbicidal effect by foliage application, J: blackgrass (blackgrass [3]): 4 (Herbicidal rate of 70% or more and less than 90%)
Herbicidal effect by foliage application, P: chickweed (chickweed [4]): 5 (Herbicidal rate of 90% or more (almost completely withered))
Herbicidal effect, C: oval-leafed pondweed (oval-leafed pondweed): 0 (Herbicidal rate of 5% or less (almost no effect))
Herbicidal effect by foliage application, K: Italian ryegrass (Italian ryegrass [5]): 0 (Herbicidal rate of 5% or less (almost no effect))
herbicidal effect on barnyard grass (H) (barnyard grass [6]): 4 (Herbicidal rate of 70% or more and less than 90%)
Herbicidal effect by foliage application, N: redroot pigweed (redroot pigweed [7]): 3 (Herbicidal rate of 40% or more and less than 70%)
Herbicidal effect by foliage application, G: green foxtail (green foxtail [8]): 0 (Herbicidal rate of 5% or less (almost no effect))
G: green foxtail, herbicidal effect grade (green foxtail [9]): 4 (Herbicidal rate of 70% or more and less than 90%)
N: redroot pigweed, herbicidal effect grade (redroot pigweed [10]): 5 (Herbicidal rate of 90% or more (almost completely withered))
R: persian speedwell, herbicidal effect grade (persian speedwell [11]): 5 (Herbicidal rate of 90% or more (almost completely withered))
Herbicidal effect by foliage application, F: southern crabgrass (southern crabgrass [12]): 0 (Herbicidal rate of 5% or less (almost no effect))
Herbicidal effect by foliage application, M: velvetleaf (velvetleaf [13]): 3 (Herbicidal rate of 40% or more and less than 70%)
F: southern crabgrass, herbicidal effect grade (southern crabgrass [14]): 1 (Herbicidal rate of 5% or more and less than 20%)
K: Italian ryegrass, herbicidal effect grade (Italian ryegrass [15]): 0 (Herbicidal rate of 5% or less (almost no effect))
H: barnyard grass, herbicidal effect grade (barnyard grass [16]): 2 (Herbicidal rate of 20% or more and less than 40%)
herbicidal effect on Chinese sprangletop (D) (Chinese sprangletop): 0 (Herbicidal rate of 5% or less (almost no effect))
Herbicidal effect, A: late watergrass (late watergrass): 3 (Herbicidal rate of 40% or more and less than 70%)
Herbicidal effect, B: Japanese bulrush (Japanese bulrush): 1 (Herbicidal rate of 5% or more and less than 20%)
Q: false cleavers, herbicidal effect grade (false cleavers): 0 (Herbicidal rate of 5% or less (almost no effect))
J: blackgrass, herbicidal effect grade (blackgrass [17]): 5 (Herbicidal rate of 90% or more (almost completely withered))
Herbicidal effect by foliage application, O: lambsquarters (lambsquarters [18]): 3 (Herbicidal rate of 40% or more and less than 70%)
I: wild oat, herbicidal effect grade (wild oat [19]): 0 (Herbicidal rate of 5% or less (almost no effect))
M: velvetleaf, herbicidal effect grade (velvetleaf [20]): 3 (Herbicidal rate of 40% or more and less than 70%)
P: chickweed, herbicidal effect grade (chickweed [21]): 5 (Herbicidal rate of 90% or more (almost completely withered))
herbicidal effect on rice flat sedge (E) (rice flat sedge): 0 (Herbicidal rate of 5% or less (almost no effect))
Herbicidal effect by foliage application, L: windgrass (windgrass [22]): 5 (Herbicidal rate of 90% or more (almost completely withered))
Herbicidal effect by foliage application, R: persian speedwell (persian speedwell [23]): 0 (Herbicidal rate of 5% or less (almost no effect))
O: lambsquarters, herbicidal effect grade (lambsquarters [24]): 5 (Herbicidal rate of 90% or more (almost completely withered))
Herbicidal effect by foliage application, I: wild oat (wild oat [25]): 0 (Herbicidal rate of 5% or less (almost no effect))
